# Data: patent US5442053A, “Salts and mixtures of hyaluronic acid with pharmaceutically active substances, pharmaceutical compositions containing the same and methods for administration of such compositions” (Fidia, S.p.A., priority 1983, dated 1995)
# What was measured:
# staphylococcus aureus = test: Recovery from dry inflammation in rabbit eye, staphylococcus aureus; assay type: in vivo
# Description: (§1) Studies were carried out with hyaluronic acid salts of the antibiotics: streptomycin, erythromycin, neomycin and gentamicin. The salts utilized are the total salts in which all of the acid groups of hyaluronic acid are salified with a basic group of the antibiotic and prepared according to the procedures described hereinabove in Examples 1, 2, 4 and 5.
# (§2) For administration, preparations were utilized comprising solutions of the HY drug complex in distilled water, having concentrations suitable to the antibiotic content:
# (§3) The activity of the above HY salts was compared to that given by the same antibiotics dissolved in phosphate buffer and having the same concentrations of antibiotic. The activity of the two groups of products was measured on the basis of the time necessary to suppress a dry inflammation of the rabbit eye induced by a bacterial agent.
# (§4) More precisely, the dry inflammation was determined in both eyes of 24 rabbits by intraocular injection of the titered suspension of one of the following bacterial groups: pseudomonas aeruginosa, staphylococcus aureus, salmonella typhi (0.1 ml). The various saline derivatives of the antibiotics were administered (3 drops every 6 hours) into the right eye (RE) of the rabbits, while into the left eye (LE) were instilled the corresponding quantities of the antibiotics dissolved in phosphate buffer. The treatment was begun immediately after injectin of the bacterial suspension and was continued until inflammation disappeared.
# (§5) In particular the following were examined: the state of the conjuntiva and the corneal epithelium, anterior chamber (presence of the Tyndall effect), the state of the iris of the posterior segment of the eye. The state of the back of the eye was examined with a Goldman lens. The presence of signs of inflammation (hyperemia, exudates, cloudiness of the liquids etc.) was registered.
# [1] = system: Bacillus subtillis ATCC 6633; test: Antimicrobial activity of streptomycin sulphate vehicled in hyaluronic acid, agar diffusion; assay type: cell-based, Bacillus subtilis
# Description: A solution of the two components (60 g hyaluronic acid sodium salt and 40 g streptomycin sulphate) was prepared and then freeze-dried.
# The antimicrobial activity of the formulation of streptomycin in hyaluronic acid sodium salt, HYALASTINE fraction, was controlled by microbial assay by agar diffusion, based on the reading after a suitable period of incubation at 32° C., and on a comparison of the diameters of the microorganism's inhibition zones (Bacillus subtillis ATCC 6633) determined on the presumed concentrations of the antibiotic under examination and on the corresponding and known concentrations of the working standard.
# After 18 hours of incubation of the assay plate at 32° C., it was observed that streptomycin vehicled in
# The results (Table 11) were obtained by measuring the diameter of microbial inhibition zones at working concentrations of 20 and 5 UI/ml, and expressed in units of antimicrobial activity per miligram of the mixture compared to streptomycin sulphate.
# pseudomonas aeruginosa = test: Recovery from dry inflammation in rabbit eye, pseudomonas aeruginosa; assay type: in vivo
# Description: as §1, §2, §3, §4, §5
# rabbit eye = test: Anti-inflammatory activity of triamcinolone vehicled in hyaluronic acid, dextran-induced intraocular inflammation; assay type: in vivo, rabbit (male New Zealand); details: for Evaluated Score, Conjunctiva / Evaluated Score, Cornea / Evaluated Score, Iris / Evaluated Score, Tyndall: score 0 to 3
# Description: The experiments were carried out on male New Zealand rabbits (average weight 1.6 kg). After an adaption period of 5 days, introocular inflammation was induced in the rabbits by intraocular injection of dextran (10%, 0.1 ml). The administration was effected in both eyes under local anaesthetic with 4% Novesina, inserting the needle of the syringe at the edge of the cornea in the anterior chamber at a distance of 2 mm. The test was conducted on 10 animals.
# Treatment was effected in each animal both in the right and left eyes, by instillation of 3 drops 3 times a day for 6 days in all, of the following:
# a solution of triamcinolone (10% in saline) in the left eye (LE);
# a solution of hyaluronic acid sodium salt, HYALECTIN fraction, (10 mg/ml)+triamcinolone phosphate (10%) in the right eye (RE).
# The anti-inflammatory effect on the reaction induced by dextran was evaluated by observing the eye with a slit lamp at the following intervals: 0, 1 hr, 3 hr, 24 hr, 48 hr, 3 days, 4 days, 5 days and 6 days.
# At the intervals, the eye examination evaluated the following observations:
# the state of the cornea and conjunctiva for the possible presence of hypermia, edema, and especially observation of the iris which is normally sensitive to inflammatory processes after injection of inflammatory agents into the anterior chamber;
# the Tyndall effect, in which the presence of opacity of varying intensity ("nubecula") is indicative of the presence of corpuscular (inflammatory) elements in the anterior chamber.
# The result of the observation was expressed in terms of subjective scoring (from 0 to 3) related to the gradualness of the effect noted.
# salmonella typhi = test: Recovery from dry inflammation in rabbit eye, salmonella typhi; assay type: in vivo
# Description: as §1, §2, §3, §4, §5
# [2] = day 1, pseudomonas aeruginosa, 3 drops every 6 hours, 6 eyes
molecule,measurement,setting,value
"CC[C@H]1OC(=O)[C@H](C)[C@@H](O[C@H]2C[C@@](C)(OC)[C@@H](O)[C@H](C)O2)[C@H](C)[C@@H](O[C@@H]2O[C@H](C)C[C@H](N(C)C)[C@H]2O)[C@](C)(O)C[C@@H](C)C(=O)[C@H](C)[C@@H](O)[C@]1(C)O [Erthromycin, erythromycin]",percentage of eyes which did not present any signs of inflammation,"staphylococcus aureus; day 1, staphylococcus aureus, 3 drops every 6 hours, 6 eyes",0.0%
same,percentage of eyes which did not present any signs of inflammation,"staphylococcus aureus; day 2, staphylococcus aureus",0.0%
same,percentage of eyes which did not present any signs of inflammation,"staphylococcus aureus; day 3, staphylococcus aureus",0.0%
same,percentage of eyes which did not present any signs of inflammation,"staphylococcus aureus; day 4, staphylococcus aureus",0.0%
same,percentage of eyes which did not present any signs of inflammation,"staphylococcus aureus; day 5, staphylococcus aureus",0.0%
same,percentage of eyes which did not present any signs of inflammation,"staphylococcus aureus; day 6, staphylococcus aureus",0.0%
same,percentage of eyes which did not present any signs of inflammation,"staphylococcus aureus; day 7, staphylococcus aureus",16.6%
same,percentage of eyes which did not present any signs of inflammation,"staphylococcus aureus; day 8, staphylococcus aureus",33.3%
"[H]/N=C(/N)N[C@H]1[C@H](O)[C@@H](O)[C@H](O[C@@H]2O[C@@H](C)[C@](O)(C=O)[C@H]2O[C@@H]2O[C@@H](CO)[C@H](O)[C@@H](O)[C@@H]2NC)[C@@H](N/C(N)=N\[H])[C@@H]1O [Streptomycin sulphate, streptomycin sulphate]","antimicrobial activity, Theoretical",[1],750 UI/MG
same,"antimicrobial activity, Effective","[1]; 18 hours, 32° C., 20 and 5 UI/ml",750 UI/MG
same,"antimicrobial activity, Effective (as streptomycin sulphate content)",[1]; values in parenthesis,1000 mg/gr
same,"antimicrobial activity, Theoretical (as streptomycin sulphate content)",[1]; values in parenthesis,1000 mg/gr
"[H]/N=C(/N)N[C@H]1[C@H](O)[C@@H](O)[C@H](O[C@@H]2O[C@@H](C)[C@](O)(C=O)[C@H]2O[C@@H]2O[C@@H](CO)[C@H](O)[C@@H](O)[C@@H]2NC)[C@@H](N/C(N)=N\[H])[C@@H]1O [Streptomycin, streptomycin]",percentage of eyes which did not present any signs of inflammation,pseudomonas aeruginosa; [2],0.0%
same,percentage of eyes which did not present any signs of inflammation,"pseudomonas aeruginosa; day 2, pseudomonas aeruginosa",0.0%
same,percentage of eyes which did not present any signs of inflammation,"pseudomonas aeruginosa; day 3, pseudomonas aeruginosa",0.0%
same,percentage of eyes which did not present any signs of inflammation,"pseudomonas aeruginosa; day 4, pseudomonas aeruginosa",0.0%
same,percentage of eyes which did not present any signs of inflammation,"pseudomonas aeruginosa; day 5, pseudomonas aeruginosa",0.0%
same,percentage of eyes which did not present any signs of inflammation,"pseudomonas aeruginosa; day 6, pseudomonas aeruginosa",16.6%
same,percentage of eyes which did not present any signs of inflammation,"pseudomonas aeruginosa; day 7, pseudomonas aeruginosa",50.0%
same,percentage of eyes which did not present any signs of inflammation,"pseudomonas aeruginosa; day 8, pseudomonas aeruginosa",100.0%
C[C@]12C=CC(=O)C=C1CC[C@H]1[C@@H]3C[C@@H](O)[C@](O)(C(=O)CO)[C@@]3(C)C[C@H](O)[C@@]12F [triamcinolone],"Evaluated Score, Conjunctiva",rabbit eye; 0,0.0
same,"Evaluated Score, Cornea",rabbit eye; 0,0.0
same,"Evaluated Score, Iris",rabbit eye; 0,0.0
same,"Evaluated Score, Tyndall",rabbit eye; 0,0.0
same,"Evaluated Score, Conjunctiva",rabbit eye; 1 hour,0.2
same,"Evaluated Score, Cornea",rabbit eye; 1 hour,1.0
same,"Evaluated Score, Iris",rabbit eye; 1 hour,0.5
same,"Evaluated Score, Tyndall",rabbit eye; 1 hour,1.0
same,"Evaluated Score, Conjunctiva",rabbit eye; 3 hours,0.0
same,"Evaluated Score, Cornea",rabbit eye; 3 hours,0.0
same,"Evaluated Score, Iris",rabbit eye; 3 hours,2.7
same,"Evaluated Score, Tyndall",rabbit eye; 3 hours,3.0
same,"Evaluated Score, Conjunctiva",rabbit eye; 24 hours,0.0
same,"Evaluated Score, Cornea",rabbit eye; 24 hours,0.1
same,"Evaluated Score, Iris",rabbit eye; 24 hours,3.0
same,"Evaluated Score, Tyndall",rabbit eye; 24 hours,3.0
same,"Evaluated Score, Conjunctiva",rabbit eye; 48 hours,0.0
same,"Evaluated Score, Cornea",rabbit eye; 48 hours,0.0
same,"Evaluated Score, Iris",rabbit eye; 48 hours,3.0
same,"Evaluated Score, Tyndall",rabbit eye; 48 hours,3.0
same,"Evaluated Score, Conjunctiva",rabbit eye; 3 days,0.0
same,"Evaluated Score, Cornea",rabbit eye; 3 days,0.0
same,"Evaluated Score, Iris",rabbit eye; 3 days,3.0
same,"Evaluated Score, Tyndall",rabbit eye; 3 days,3.0
same,"Evaluated Score, Conjunctiva",rabbit eye; 4 days,0.0
same,"Evaluated Score, Cornea",rabbit eye; 4 days,0.0
same,"Evaluated Score, Iris",rabbit eye; 4 days,2.4
same,"Evaluated Score, Tyndall",rabbit eye; 4 days,2.2
same,"Evaluated Score, Conjunctiva",rabbit eye; 5 days,0.0
same,"Evaluated Score, Cornea",rabbit eye; 5 days,0.0
same,"Evaluated Score, Iris",rabbit eye; 5 days,1.5
same,"Evaluated Score, Tyndall",rabbit eye; 5 days,1.2
same,"Evaluated Score, Conjunctiva",rabbit eye; 6 days,0.0
same,"Evaluated Score, Cornea",rabbit eye; 6 days,0.0
same,"Evaluated Score, Iris",rabbit eye; 6 days,0.5
same,"Evaluated Score, Tyndall",rabbit eye; 6 days,0.4
same,anti-inflammatory effect (in words),rabbit eye; dextran-induced intraocular inflammation,"almost normal conditions are restored, with perfect limpidness of the eye by the 6th day"
gentamicin [Gentamycin],percentage of eyes which did not present any signs of inflammation,pseudomonas aeruginosa; [2],0.0%
same,percentage of eyes which did not present any signs of inflammation,"pseudomonas aeruginosa; day 2, pseudomonas aeruginosa",0.0%
same,percentage of eyes which did not present any signs of inflammation,"pseudomonas aeruginosa; day 3, pseudomonas aeruginosa",0.0%
same,percentage of eyes which did not present any signs of inflammation,"pseudomonas aeruginosa; day 4, pseudomonas aeruginosa",0.0%
same,percentage of eyes which did not present any signs of inflammation,"pseudomonas aeruginosa; day 5, pseudomonas aeruginosa",0.0%
same,percentage of eyes which did not present any signs of inflammation,"pseudomonas aeruginosa; day 6, pseudomonas aeruginosa",33.3%
same,percentage of eyes which did not present any signs of inflammation,"pseudomonas aeruginosa; day 7, pseudomonas aeruginosa",50.0%
same,percentage of eyes which did not present any signs of inflammation,"pseudomonas aeruginosa; day 8, pseudomonas aeruginosa",100.0%
neomycin,percentage of eyes which did not present any signs of inflammation,"salmonella typhi; day 1, salmonella typhi, 3 drops every 6 hours, 6 eyes",0.0%
same,percentage of eyes which did not present any signs of inflammation,"salmonella typhi; day 2, salmonella typhi",0.0%
same,percentage of eyes which did not present any signs of inflammation,"salmonella typhi; day 3, salmonella typhi",0.0%
same,percentage of eyes which did not present any signs of inflammation,"salmonella typhi; day 4, salmonella typhi",0.0%
same,percentage of eyes which did not present any signs of inflammation,"salmonella typhi; day 5, salmonella typhi",0.0%
same,percentage of eyes which did not present any signs of inflammation,"salmonella typhi; day 6, salmonella typhi",0.0%
same,percentage of eyes which did not present any signs of inflammation,"salmonella typhi; day 7, salmonella typhi",16.6%
same,percentage of eyes which did not present any signs of inflammation,"salmonella typhi; day 8, salmonella typhi",33.3%
